Assay results published in patent US20140023611A1 (priority 2010, published 2014).

Assay: Stability of compounds in simulated gastric and intestinal fluid
Type: in vitro ADME
Details: Structure (V) examples, Table 3, 3 hr; for % remaining, SGF: simulated gastric fluid; for % remaining, SIF: simulated intestinal fluid
Procedure: Test compounds were incubated at 1-20 μM in simulated gastric fluid (SGF; standard USP solution with 3 mg/mL pepsin) or simulated intestinal fluid (SIF; standard USP solution with 3 mg/mL pancreatin) for 3 hr or 6 hr. HPLC-UV or HPLC-MS were used to determine test compound levels using peak area %. Results (Table 5) were reported as the percentage of test compound remaining after incubation in a given condition relative to test compound present at t=0 in the same condition.
Test compounds were incubated at 1-20 μM in simulated gastric fluid (SGF; standard USP solution with 3 mg/mL pepsin) or simulated intestinal fluid (SIF; standard USP solution with 3 mg/mL pancreatin) for 3 hr. HPLC-UV or HPLC-MS were used to determine test compound levels using peak area %. Results (Table 3) were reported as the percentage of test compound remaining after incubation in a given condition relative to test compound present at t=0 in the same condition.

SMILES	% remaining, SGF [%]	% remaining, SIF [%]
COCCNC(=O)CCSCc1cccc(C(=O)Nc2ccc(N3CCCCC3)cc2C(=O)N/N=C/c2ccc(Cl)c(C(F)(F)F)c2)c1 [Ex. 49, (E)-N-(2-(2-(4-chloro-3-(trifluoromethyl)benzylidene)hydrazinecarbonyl)-4-(piperidin-1-yl)phenyl)-3-((3-(2-methoxyethylamino)-3-oxopropylthio)methyl)benzamide]	21	89
O=C(NCCN1CCOCC1)c1cccc(C(=O)Nc2ccc(N3CCCCC3)cc2C(=O)N/N=C/c2ccc(Cl)c(C(F)(F)F)c2)c1 [Ex. 53, (E)-N^1-(2-(2-(4-chloro-3-(trifluoromethyl)benzylidene)hydrazinecarbonyl)-4-(piperidin-1-yl)phenyl)-N3-(2-morpholinoethyl)isophthalamide]	6	107
